Test results: patent publication US8993618B2, “Composition for treating influenza A (H1N1) virus and a preparation method therefor” (priority 2010, dated 2015)
In brackets after ≈: the same amount, converted by molar mass. Where two headings read alike, the source gives them in different places.

Assays:
in vitro [1] = conditions: human
in vitro [2] = conditions: human; remark: listed apart in the source
in vitro [3] = conditions: human; remark: listed apart in the source
in vitro [4] = conditions: human, IC50 cytotoxicity Hep 3B
in vitro [5] = conditions: human, IC50 cytotoxicity MCF 7
in vitro [6] = conditions: human; remark: listed apart in the source
[7] = MTT cytotoxicity assay, Hep 3B; conditions: human, Hep 3B liver cancer cells, IC50 cytotoxicity Hep 3B
[8] = MTT cytotoxicity assay, Hep G2; conditions: human, Hep G2 liver cancer cells
[9] = MTT cytotoxicity assay, A 549; conditions: human, A 549 lung cancer cells
[10] = MTT cytotoxicity assay, MCF 7; conditions: human, MCF 7 breast cancer cells, IC50 cytotoxicity MCF 7, MTT
[11] = MTT cytotoxicity assay, MDA-MB-231; conditions: human, MDA-MB-231 breast cancer cells
[12] = MTT cytotoxicity assay, Ca9-22; conditions: human, Ca9-22 oral cancer cells
influenza A virus (H1N1) = test: microbe, parasite or virus in culture; type: cell-based; conditions: for IC50 / IC90: Influenza A virus; for IC50: read-out: IC50, influenza A (H1N1) antiviral activity; for IC90: read-out: IC90, influenza A (H1N1) antiviral activity
[13] = test system: Hep G2 liver cancer cell line
[14] = test system: Hep 3B liver cancer cell line
[15] = test system: MDA-MB-231 breast cancer cell line
[16] = test system: A 549 lung cancer cell line
[17] = test system: Ca9-22 oral cancer cell line
[18] = test system: MCF 7 breast cancer cell line
[19] = test system: Ca9-22 oral cancer cell line; test: MTT cytotoxicity assay, Ca9-22; conditions: MTT, 3 days
[20] = test system: Hep 3B liver cancer cell line; test: MTT cytotoxicity assay, Hep 3B; conditions: 3 days
[21] = test system: Hep G2 liver cancer cell line; test: MTT cytotoxicity assay, Hep G2; conditions: MTT, 3 days
[22] = test system: A 549 lung cancer cell line; test: MTT cytotoxicity assay, A 549; conditions: MTT, 3 days
[23] = test system: MCF 7 breast cancer cell line; test: MTT cytotoxicity assay, MCF 7; conditions: MTT, 3 days
[24] = test system: MDA-MB-231 breast cancer cell line; test: MTT cytotoxicity assay, MDA-MB-231; conditions: MTT, 3 days
[25] = H1N1, 72 h, MDCK cells, XTT, 3 days, concentration achieving 50% cytoprotection
[26] = H1N1, 72 h, MDCK cells, XTT, 3 days
[27] = MDCK cells, XTT, 3 days, concentration achieving 50% cytoprotection

Compound: C[C@@H]1C[C@@H](O)[C@]2(C)[C@@H](C)C(=O)CC[C@H]2[C@]1(C)COc1ccc2ccc(=O)oc2c1 (single isomer, unassigned) [Kamolonol, kamolonol]
- IC50 at 3 days (in vitro [1]): > 20 µg/mL
- IC50 at 3 days (in vitro [2]): > 20 µg/mL
- IC50 at 3 days (in vitro [3]): > 20 µg/mL
- IC50 at 3 days (in vitro [4]): 17.9 µg/mL (≈ 45 µM)
- IC50 at 3 days (in vitro [5]): > 20 µg/mL
- IC50 at 3 days (in vitro [6]): > 20 µg/mL

Compound: C=C1CC[C@]2(C)C(C)(C)[C@@H](OC(C)=O)CC[C@]2(C)[C@H]1COc1ccc2ccc(=O)oc2c1 (single isomer, unassigned) [Polyanthinin, polyanthinin]
- IC50 at 3 days (in vitro [4]): 5.9 µg/mL (≈ 13.5 µM)
- IC50 at 3 days (in vitro [5]): 9.94 µg/mL (≈ 22.7 µM)

Compound: COc1cc(C=O)ccc1O (single isomer, unassigned) [Vanillin, vanillin]
- IC50 at 3 days [7]: > 20 µg/mL
- IC50 at 3 days [8]: > 20 µg/mL
- IC50 at 3 days [9]: 16.4 µg/mL (≈ 108 µM)
- IC50 at 3 days [10]: 15.7 µg/mL (≈ 103 µM)
- IC50 at 3 days [11]: > 20 µg/mL
- IC50 at 3 days [12]: > 20 µg/mL

Compound: NC12CC3CC(CC(C3)C1)C2 [Amantadine, reference compound]
- IC50 (influenza A virus (H1N1); H1N1, MDCK, 72 h): 0.92 ± 0.04 µg/mL (≈ 6.08 µM)
- IC90 (influenza A virus (H1N1); H1N1, MDCK, 72 h): 1.73 ± 0.11 µg/mL (≈ 11.4 µM)

Compound: CC(=O)O[C@H](CC/C(C)=C/CC/C(C)=C/COc1ccc2ccc(=O)oc2c1)C(C)(C)O [Compound 2, 10′R-Acetoxy-11′-hydroxyumbelliprenin]
- IC50 at 3 days (in vitro [1]): > 20 µg/mL
- IC50 at 3 days (in vitro [2]): > 20 µg/mL
- IC50 at 3 days (in vitro [3]): > 20 µg/mL
- IC50 at 3 days (in vitro [4]): 19.8 µg/mL (≈ 44.7 µM)
- IC50 (influenza A virus (H1N1); [25]): 0.94 ± 0.07 µg/mL (≈ 2.12 µM)
- IC90 (influenza A virus (H1N1); [26]): 1.98 ± 0.12 µg/mL (≈ 4.47 µM)
- IC50 at 3 days (in vitro [5]): > 20 µg/mL
- IC50 at 3 days (in vitro [6]): > 20 µg/mL

Compound: CC(C)=CCC/C(C)=C/C(O)C/C(C)=C/COc1ccc2ccc(=O)oc2c1 (stereo not drawn) [Compound 4, 5′-hydroxyumbelliprenin]
- IC90, influenza A (H1N1) antiviral activity (influenza A virus (H1N1); MDCK cells, XTT, 3 days): 0.62 ± 0.08 µg/mL (≈ 1.62 µM)
- IC50, influenza A (H1N1) antiviral activity (influenza A virus (H1N1); [27]): 0.36 ± 0.03 µg/mL (≈ 0.941 µM)

Compound: C/C(=C\COc1ccc2ccc(=O)oc2c1)CC/C=C(\C)CCC(O)C(C)(C)O (stereo not drawn) [Compound 5, 10′R-karatavicinol]
- IC50 cytotoxicity Hep G2 [13]: >20 µg/mL
- IC50 cytotoxicity Hep 3B [14]: >20 µg/mL
- IC50 cytotoxicity MDA-MB-231 [15]: >20 µg/mL
- IC50 cytotoxicity A 549 [16]: 10.97 µg/mL (≈ 27.4 µM)
- IC90, influenza A (H1N1) antiviral activity (influenza A virus (H1N1); MDCK cells, XTT, 3 days): 2.05 ± 0.14 µg/mL (≈ 5.12 µM)
- IC50, influenza A (H1N1) antiviral activity (influenza A virus (H1N1); [27]): 0.99 ± 0.07 µg/mL (≈ 2.47 µM)
- IC50 cytotoxicity Ca9-22 [17]: >20 µg/mL
- IC50 cytotoxicity MCF 7 [18]: 14.27 µg/mL (≈ 35.6 µM)

Compound: CC(=O)OC(CC=C(C)C)/C(C)=C/[C@@H](O)C/C(C)=C/COc1ccc2ccc(=O)oc2c1 (stereo partly drawn) [Compound 6, 8′-acetoxy-5′S-hydroxyumbelliprenin]
- IC50 cytotoxicity Hep G2 [13]: 15.59 µg/mL (≈ 35.4 µM)
- IC50 cytotoxicity Hep 3B [14]: 9.82 µg/mL (≈ 22.3 µM)
- IC50 cytotoxicity MDA-MB-231 [15]: >20 µg/mL
- IC50 cytotoxicity A 549 [16]: >20 µg/mL
- IC90, influenza A (H1N1) antiviral activity (influenza A virus (H1N1); MDCK cells, XTT, 3 days): 1.56 ± 0.11 µg/mL (≈ 3.54 µM)
- IC50, influenza A (H1N1) antiviral activity (influenza A virus (H1N1); [27]): 0.81 ± 0.06 µg/mL (≈ 1.84 µM)
- IC50 cytotoxicity Ca9-22 [17]: 14.23 µg/mL (≈ 32.3 µM)
- IC50 cytotoxicity MCF 7 [18]: >20 µg/mL

Compound: COC(=O)CC[C@H]1C(=C(C)C)CC[C@H](C)[C@]1(C)COc1ccc2ccc(=O)oc2c1 [Compound 7, methyl galbanate]
- IC50 at 3 days (in vitro [4]): 4.33 µg/mL (≈ 10.5 µM)
- IC50 (influenza A virus (H1N1); [25]): 0.26 ± 0.03 µg/mL (≈ 0.63 µM)
- IC90 (influenza A virus (H1N1); [26]): 0.44 ± 0.05 µg/mL (≈ 1.07 µM)
- IC50 at 3 days (in vitro [5]): > 20 µg/mL

Compound: CC(C)=C1CC[C@H](C)[C@](C)(COc2ccc3ccc(=O)oc3c2)[C@H]1CCC(=O)O [Compound 8, galbanic acid]
- IC50 (influenza A virus (H1N1); [25]): 0.45 ± 0.04 µg/mL (≈ 1.13 µM)
- IC90 (influenza A virus (H1N1); [26]): 0.88 ± 0.07 µg/mL (≈ 2.21 µM)

Compound: C/C(=C\COc1ccc2ccc(=O)oc2c1)CC[C@@H]1C(C)(C)[C@H]2CC[C@]1(C)O2 [Compound 9, farnesiferol C]
- IC90, influenza A (H1N1) antiviral activity (influenza A virus (H1N1); MDCK cells, XTT, 3 days): 0.50 ± 0.07 µg/mL (≈ 1.31 µM)
- IC50, influenza A (H1N1) antiviral activity (influenza A virus (H1N1); [27]): 0.29 ± 0.02 µg/mL (≈ 0.758 µM)

Compound: C=C1CC[C@@H]2C(C)(C)[C@H](O)CC[C@@]2(C)[C@H]1COc1ccc2ccc(=O)oc2c1 [Compound 10, farnesiferol A]
- IC50 cytotoxicity Hep G2 [13]: 14.89 µg/mL (≈ 38.9 µM)
- IC50 cytotoxicity Hep 3B [14]: 7.66 µg/mL (≈ 20 µM)
- IC50 cytotoxicity MDA-MB-231 [15]: 19.00 µg/mL (≈ 49.7 µM)
- IC50 cytotoxicity A 549 [16]: 15.79 µg/mL (≈ 41.3 µM)
- IC90, influenza A (H1N1) antiviral activity (influenza A virus (H1N1); MDCK cells, XTT, 3 days): 0.64 ± 0.07 µg/mL (≈ 1.67 µM)
- IC50, influenza A (H1N1) antiviral activity (influenza A virus (H1N1); [27]): 0.51 ± 0.04 µg/mL (≈ 1.33 µM)
- IC50 cytotoxicity MCF 7 [18]: 15.57 µg/mL (≈ 40.7 µM)
- IC50 cytotoxicity Ca9-22 [19]: 12.07 µg/mL (≈ 31.6 µM)

Compound: CC1=CC[C@@H]2C(C)(C)[C@@H](O)CC[C@@]2(C)[C@@H]1COc1ccc2ccc(=O)oc2c1 [Compound 11, conferol]
- IC50 cytotoxicity Hep 3B ([14]; human, 3 days): 2.63 µg/mL (≈ 6.88 µM)
- IC50 at 3 days (in vitro [4]): 2.6 µg/mL (≈ 6.8 µM)
- IC50 (influenza A virus (H1N1); [25]): 0.47 ± 0.05 µg/mL (≈ 1.23 µM)
- IC90 (influenza A virus (H1N1); [26]): 0.83 ± 0.09 µg/mL (≈ 2.17 µM)
- IC50 at 3 days (in vitro [5]): 3.4 µg/mL (≈ 8.89 µM)
- IC50 cytotoxicity MCF 7 ([18]; human, 3 days): 3.38 µg/mL (≈ 8.84 µM)

Compound: CC1=CC(=O)[C@@H]2C(C)(C)[C@H](O)CC[C@@]2(C)[C@@H]1COc1ccc2ccc(=O)oc2c1 [Compound 12, ligupersin A]
- IC90, influenza A (H1N1) antiviral activity (influenza A virus (H1N1); MDCK cells, XTT, 3 days): 1.75 ± 0.12 µg/mL (≈ 4.41 µM)
- IC50, influenza A (H1N1) antiviral activity (influenza A virus (H1N1); [27]): 0.86 ± 0.08 µg/mL (≈ 2.17 µM)

Compound: CC1=CC(=O)[C@@H]2C(C)(C)C(=O)CC[C@@]2(C)[C@@H]1COc1ccc2ccc(=O)oc2c1 [Compound 13, epi-conferdione]
- IC90, influenza A (H1N1) antiviral activity (influenza A virus (H1N1); MDCK cells, XTT, 3 days): 0.37 ± 0.03 µg/mL (≈ 0.938 µM)
- IC50, influenza A (H1N1) antiviral activity (influenza A virus (H1N1); [27]): 0.32 ± 0.02 µg/mL (≈ 0.811 µM)

Compound: COc1cccc2c1C(=O)c1c(O)c3c(c(O)c1C2=O)C[C@@](O)(C(=O)CO)C[C@@H]3O[C@H]1C[C@H](N)[C@H](O)[C@H](C)O1 [Doxorubicin, reference compound]
- IC50 at 3 days [7]: 0.41 µg/mL (≈ 0.754 µM)
- IC50 at 3 days [8]: 0.16 µg/mL (≈ 0.294 µM)
- IC50 at 3 days [9]: 0.35 µg/mL (≈ 0.644 µM)
- IC50 at 3 days [12]: 0.14 µg/mL (≈ 0.258 µM)

Compound: foetisulfide C
- IC50 cytotoxicity Hep 3B [20]: 19.21 µg/mL
- IC50 cytotoxicity Hep G2 [21]: >20 µg/mL
- IC50 cytotoxicity A 549 [22]: 9.14 µg/mL
- IC50 cytotoxicity MCF 7 [23]: >20 µg/mL
- IC50 cytotoxicity MDA-MB-231 [24]: >20 µg/mL
- IC50 cytotoxicity Ca9-22 [19]: 16.48 µg/mL
